Experiments:
[1] = background art; cited from earlier work
[2] = system: adenosinedeaminase; conditions: cited from earlier work
[3] = system: adenosinedeaminase; conditions: in bodies; cited from earlier work
[4] = system: EMT-6 tumor; assay: Radiosensitizing effect on EMT-6 experimental tumors in mice (enhancer i.p. after local irradiation); assay type: in vivo, BALB/c-strain female mice; conditions: for Radiosensitizing activity: summary statement; for Diameter ratio / Mean tumor diameter / Volume ratio: irradiation 1500 rad + i.p. enhancer (3'-dGuo-5'-MP 100 mg/kg; 3'-dAdo-5'-MP 75 mg/kg); for 0.5 to less than 1 of volume ratio excluding cure; Tumor regression rate: slow, share of mice / 1.0 to less than 2.0 of volume ratio excluding cure; regrowth: slow, share of mice / 2.0 or more of volume ratio excluding cure; regrowth: rapid, share of mice / Cure (tumors completely vanished), share of mice / Less than 0.5 of volume ratio excluding cure; Tumor regression rate: rapid, share of mice: 28th day after treatment, irradiation 1500 rad + enhancer (3'-dGuo-5'-MP 100 mg/kg; 3'-dAdo-5'-MP 75 mg/kg); for Mean tumor diameter at the time of irradiation: baseline before irradiation (1500 rad) and i.p. enhancer (3'-dGuo-5'-MP 100 mg/kg, n = 9; 3'-dAdo-5'-MP 75 mg/kg, n = 10)
Method: EMT-6 tumor cells (2×10^5) were inoculated intradermally into the right thighs of BALB/c-strain female mice (8 weeks old, 6 or more mice for each group). When the tumor size reached 6 to 7 mm in diameter after inoculation of the tumor cells, local irradiation with a 32 MeV electron beam was carried out at 1,500 rad under no anesthesia and thereafter 3'-dGuo-5'-MP and 3'-dAdo-5'-MP dissolved in physiological saline solution, was administered intraperitoneally to each mouse in the indicated doses of respective agents. After these treatments, the tumor sizes were measured in tri-dimensional diameters every day or every other day for 28 days, and compared with the control group with respect to the following items: [formula]
The results are shown in Table 1 and Table 2, in which "cure" means that the tumors completely vanished during the observation period.

[5] = system: potentially lethal damage repair (PLDR); assay: Inhibition of potentially lethal damage repair (PLDR)
Text: In view of the fact that the tumor cells with radioresistance under hypoxic conditions are at a quiescent stage, I have investigated the possibility of radiosensitization by inhibiting potentially lethal damage repair (hereinafter referred to as "PLDR"), which is especially marked in quiescent cells.

[6] = Acute toxicity test, intraperitoneal; conditions: mouse, in vivo, ip, ICR mice, male, 8 weeks old, observed for a week
Method: The compounds of this invention were administered intraperitoneally to ICR mice (male, 8 weeks old, 10 mice for each group), and the mice were subjected to observation for a week.

[7] = system: EMT-6 tumor; assay: Enhancement of the effect of anti-tumor agents (araC) on EMT-6 experimental tumors in mice; assay type: in vivo, BALB/c-strain female mice
Method: EMT-6 tumor cells (1×10^6) were inoculated intradermally into the right thighs of BALB/c-strain female mice (8 weeks old). On the 11th day after inoculation of the tumor cells and thereafter, 3'-dGuo-5'-MP in physiological saline solutions were administered intrapenitoneally to the mice for 8 consecutive days in the dose of 50 mg/kg. The pharmaceutical agents of the present invention were administered an hour after administration of araC. After commencement of the treatment with pharmaceutical agents, the tumor sizes were measured and compared with the control group.

[8] = 7 days after commencement of treatment, single agent 50 mg/kg × 8
[9] = 7 days after commencement of treatment, single agent 50 mg/kg × 8 (n = 10)
[10] = 14 days after commencement of treatment, single agent 50 mg/kg × 8
[11] = 14 days after commencement of treatment, single agent 50 mg/kg × 8 (n = 10)
[12] = 21 days after commencement of treatment, single agent 50 mg/kg × 8
[13] = 21 days after commencement of treatment, single agent 50 mg/kg × 8 (n = 10)
[14] = immediately before commencement of treatment, single agent 50 mg/kg × 8 (n = 10)

Row | Compound | Toxicity / side effects [1] | Radiosensitizing activity [4] | Diameter ratio ([4]; 2 weeks after treatment) | Mean tumor diameter ([4]; 2 weeks after treatment) [mm] | Volume ratio ([4]; 2 weeks after treatment) | Diameter ratio ([4]; 3 weeks after treatment) | Mean tumor diameter ([4]; 3 weeks after treatment) [mm] | Volume ratio ([4]; 3 weeks after treatment) | 0.5 to less than 1 of volume ratio excluding cure; Tumor regression rate: slow, share of mice [4] [%] | 1.0 to less than 2.0 of volume ratio excluding cure; regrowth: slow, share of mice [4] [%] | 2.0 or more of volume ratio excluding cure; regrowth: rapid, share of mice [4] [%] | Cure (tumors completely vanished), share of mice [4] [%] | Less than 0.5 of volume ratio excluding cure; Tumor regression rate: rapid, share of mice [4] [%] | Mean tumor diameter at the time of irradiation [4] [mm] | LD50 at 168 h [6] [mg/kg] | Mean tumor diameter ratio [7, 8] | Mean tumor diameter [7, 9] [mm] | Mean tumor diameter ratio [7, 10] | Mean tumor diameter [7, 11] [mm] | Mean tumor diameter ratio [7, 12] | other results
1 | OC[C@H]1O[C@@H](n2cnc3c2NC=NC[C@H]3O)C[C@@H]1O [2'-deoxycoformycin] | may cause damage to the immune systems | – | – | – | – | – | – | – | – | – | – | – | – | – | – | – | – | – | – | – | Adenosinedeaminase inhibition [2]: inhibitor against adenosinedeaminase
2 | Nc1ncnc2c1ncn2[C@@H]1O[C@H](CO)C[C@H]1O [3'-dAdo, 3'-deoxyadenosine] | various side effects | excellent radiosensitizing activities | – | – | – | – | – | – | – | – | – | – | – | – | – | – | – | – | – | – | Inactivation by adenosinedeaminase [3]: readily inactivated by adenosinedeaminase; PLDR-inhibiting ability [5]: confirmed to have a PLDR-inhibiting ability; PLDR-inhibiting ability in combination with 2'-deoxycoformycin ([5]; in combination with 2'-deoxycoformycin): can be strengthened and prolonged
3 | Nc1ncnc2c1ncn2[C@@H]1O[C@H](COP(=O)(O)O)C[C@H]1O [3'-dAdo-5'-MP, 3'-deoxyadenosine-5'-monophosphate] | – | excellent radiosensitizing activities | 0.66 ± 0.14 | 4.75 ± 1.06 | 0.63 ± 0.18 | 0.49 ± 0.17 | 3.65 ± 1.24 | 0.58 ± 0.27 | 0 | 20 | 10 | 50 | 20 | 7.07 ± 0.23 | 500 | – | – | – | – | – | –
4 | Nc1nc2c(ncn2[C@@H]2O[C@H](COP(=O)(O)O)C[C@H]2O)c(=O)[nH]1 [3'-dGuo-5'-MP, 3'-deoxyguanosine-5'-monophosphate] | – | excellent radiosensitizing activities | 0.93 ± 0.13 | 6.17 ± 0.90 | 1.19 ± 0.32 | 0.90 ± 0.18 | 5.95 ± 1.22 | 1.45 ± 0.46 | 22 | 56 | 0 | 22 | 0 | 6.46 ± 0.23 | > 1000 | 1.30 ± 0.13 | 9.83 ± 1.07 | 1.61 ± 0.27 | 12.10 ± 2.00 | 2.05 ± 0.32 | Mean tumor diameter ratio ([7]; 7 days after commencement, combination araC 50 mg/kg × 8 + 3'-dGuo-5'-MP 50 mg/kg × 8): 1.13 ± 0.15; Mean tumor diameter ([7]; 7 days after commencement, combination araC 50 mg/kg × 8 + 3'-dGuo-5'-MP 50 mg/kg × 8 (1 h after araC)): 8.28 ± 1.11 mm; Mean tumor diameter ratio ([7]; 14 days after commencement, combination araC 50 mg/kg × 8 + 3'-dGuo-5'-MP 50 mg/kg × 8): 1.26 ± 0.51; Mean tumor diameter ([7]; 14 days after commencement, combination araC 50 mg/kg × 8 + 3'-dGuo-5'-MP 50 mg/kg × 8 (1 h after araC)): 9.12 ± 3.67 mm; Mean tumor diameter [7, 13]: 15.40 ± 2.01 mm; Mean tumor diameter ratio ([7]; 21 days after commencement, combination araC 50 mg/kg × 8 + 3'-dGuo-5'-MP 50 mg/kg × 8): 1.67 ± 0.68; Mean tumor diameter ([7]; 21 days after commencement, combination araC 50 mg/kg × 8 + 3'-dGuo-5'-MP 50 mg/kg × 8 (1 h after araC)): 12.07 ± 4.98 mm; Mean tumor diameter ([7]; immediately before commencement of treatment, combination araC 50 mg/kg × 8 + 3'-dGuo-5'-MP 50 mg/kg × 8 (n = 9)): 7.34 ± 0.62 mm; Mean tumor diameter [7, 14]: 7.57 ± 0.64 mm
5 | Nc1ccn([C@@H]2O[C@H](CO)[C@@H](O)[C@@H]2O)c(=O)n1 [araC, 1-β-D-arabinofuranosylcytosine, reference compound] | – | – | – | – | – | – | – | – | – | – | – | – | – | – | – | 1.29 ± 0.13 | 9.63 ± 0.68 | 1.60 ± 0.20 | 11.91 ± 1.21 | 2.08 ± 0.20 | Mean tumor diameter [7, 13]: 15.49 ± 1.26 mm; Mean tumor diameter [7, 14]: 7.49 ± 0.63 mm
6 | COCC(O)Cn1ccnc1[N+](=O)[O-] (stereo not drawn) [misonidazole] | neurotoxicity | – | – | – | – | – | – | – | – | – | – | – | – | – | – | – | – | – | – | – | –

— patent publication US4432348A, “Enhancer of anti-tumor effect” (Yamasa Shoyu Kabushiki Kaisha, priority 1980, dated 1984)
